Test results taken from the supplement of paper PMC3068080.

Columns and labels:
TGFBR1 mRNA = experiment: remaining TGFBR1 mRNA relative to control siRNA (off-target knock-down) (fraction of control); quantification method: branched DNA; higher = less knock-down
Method: (§1)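 Screen-hit siRNA duplexes (19-mer plus 3' dTdT overhang) were transiently transfected into HaCaT cells in 12-well plates. After 48 h, TGFBR1 and TGFBR2 mRNA were quantified by branched DNA assay (QuantiGene, normalised to HPRT1) or by SYBR qPCR (normalised to HPRT1/SMAD4). Values are the remaining mRNA relative to control-siRNA-transfected cells; 1-2 biological replicates.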

TGFBR2 mRNA = experiment: remaining TGFBR2 mRNA relative to control siRNA (off-target knock-down) (fraction of control); quantification method: branched DNA; higher = less knock-down
Method: as §1

| Sequence | remaining TGFBR1 mRNA (TGFBR1 mRNA) | remaining TGFBR2 mRNA (TGFBR2 mRNA) |
| --- | --- | --- |
| AUUUCGCACACGUCCGUGUTT | 0.86 | 0.61 |
| UUCGUCGAUGGCUUCGUCUTT | 0.67 | 0.65 |
| AUGGUGUGGCUCGUCGUGCTT | 0.45 | 0.46 |
| AUGGCUAUUCCUGACCACGTT | 0.93 | 0.26 |
| CUCCUUGGCACACUUCUCATT | 0.93 | 0.34 |
| GGUGCCAGGCAUUUUAUCCTT | 1.06 | 0.9 |
| UUUGGCUUCUUCUAGUGACTT | 0.91 | 0.51 |
| AGCACUGCGAGUACUGUGUTT | 0.33 | 1.08 |
| AACAUAGCCUCAUACAAGGTT | 0.7 | 0.25 |
| CCACUGGUGUGGGCCAUAATT | 1.38 | 0.51 |
| AUGCCAUUGUGCAUUGUCATT | 0.85 | 0.36 |
| UUCUUUGGAGAGUCCGGUCTT | 0.88 | 0.3 |
| UCCAUGGAUGCAGAAGUCCTT | 0.96 | 0.56 |
| UUCAAGGUCAGUCUCUGGGTT | 1.07 | 0.51 |
| UUCCUUGGCUGUGAUGCUCTT | 0.93 | 0.11 |
| AGAUCCAGGAUUACGCCAGTT | 0.88 | 0.72 |
| UACAUGAUGUAAACGAUAATT | 0.44 | 0.54 |
| AAGUCUGACUCGGUAAGUATT | 0.87 | 0.72 |
| CAGAGCGAUCACCUUGAACTT | 0.66 | 0.17 |
| UAUAGUCCACAGACACGCUTT | 0.92 | 0.97 |
| UUCUUCUGGUCCAUACUCATT | 0.45 | 0.66 |
| UUCCUUGGUACGGCCGCUCTT | 0.87 | 0.13 |
| AUCCUGAGAUGUCAGCAGCTT | 1.42 | 0.4 |
| UUAUCCUGAUCACGUCUAGTT | 0.65 | 0.14 |
| UCCUUGGUCUCAUCUGCCUTT | 1.05 | 0.43 |

| Sequence | remaining TGFBR1 mRNA (TGFBR1 mRNA) | remaining TGFBR2 mRNA (TGFBR2 mRNA) |
| --- | --- | --- |
| UGGAGCUGCACAUAUUCCUTT | 1.2 | 0.27 |
| UGCAGUGAUAAAGGCUACATT | 0.34 | 0.67 |
| AUAUUCCGUAAAACGAACATT | 0.77 | 0.38 |
| CACUUCCCGGAUACUCAGATT | 0.96 | 0.33 |
| AGCUUAUCCAACAGACGUCTT | 1.07 | 0.29 |
| AGAGAUUCCUUUUCUUCACTT | 0.24 | 0.79 |
| UGAUGUUGAUCUGGGGCACTT | 0.55 | 0.54 |
| UUGUGCUGCAUACGGAGCCTT | 1.69 | 0.45 |
| AUAUGUAAGACCUUCCUUCTT | 0.38 | 0.25 |
| UGCUUGAGUAGUGCUAGUUTT | 0.71 | 0.58 |
| AUCUAAACUCCUCUGGAGCTT | 0.76 | 0.38 |
| UUUGUUGUCCAGUGGUCCGTT | 1.13 | 0.43 |
| ACCAUGUCGGCCUUUUCAATT | 0.35 | 0.5 |
| UCUCAUUUACCCUUUGGGGTT | 0.67 | 0.33 |
| AAUCCUCUGGUGACUGCUGTT | 1.13 | 0.54 |
| AAGUGCAUUCCGUGCAAUCTT | 0.92 | 0.59 |
| UCCAGCUGCAUUCCUCGCUTT | 0.75 | 0.35 |
| AUGUCUCAAAGUCAAAAAATT | 0.92 | 0.58 |
| AUGGUGAGAAGACACAGGCTT | 1.33 | 0.54 |
| UUUUCCUGGCCUCUGAUCCTT | 0.99 | 0.15 |
| AUGGACAUUUACGGUAGUGTT | 0.44 | 0.46 |
| AUCUACACACACGCAAGAATT | 1.48 | 0.73 |
| UGUCCUGGUCACACUUCCATT | 0.23 | 0.5 |
| GGGUUUUCCCAGUCACGACTT | 0.91 | 0.54 |
| UGUUCUUGAAGUCCCGCAGTT | 1.69 | 0.78 |

| Sequence | remaining TGFBR1 mRNA (TGFBR1 mRNA) | remaining TGFBR2 mRNA (TGFBR2 mRNA) |
| --- | --- | --- |
| UUAUAAGCCAAAGUGCGUCTT | 0.6 | 1.66 |
| UGCGUUUACGGUUCACACGTT | 0.69 | 0.6 |
| AUGCACCGAACAGCUCCAUTT | 1.56 | 0.31 |
| UGAAGACAGUCCUAUGGACTT | 0.42 | 0.97 |
| GAUGUUCCACAAAUUCCACTT | 0.85 | 0.47 |
| CUUGGUACAGCACAUGGUUTT | 0.55 | 0.82 |
| AGCCCAUGCCCUUCACAAUTT | 0.71 | 0.89 |
| AAUGGGAGACAAGCCAAUUTT | 0.77 | 0.25 |
| GGAAGUGUCAUGGAAGGUGTT | 0.7 | 0.29 |
| AUAAGCAGUAAGUAGCUGGTT | 0.5 | 0.99 |
| AGCGGUGCGUUUCAGGCUGTT | 1.06 | 0.7 |
| UCCUUGGUCCAUUAGGAGATT | 0.61 | 0.22 |
| CCUCAAUUGACACUUGCCUTT | 1 | 0.8 |
| GAUGAAGAAGAGCGCAGCATT | 1.27 | 1.08 |
| AAUCAGGGCGGAGUAGGUGTT | 1.21 | 0.91 |
| UUGCAAGCCCAGAUCAGACTT | 0.92 | 0.74 |
| ACUUUGGACAUGACCGGCUTT | 1.2 | 0.51 |
| AUAUCCCGGGAGUUGUCGUTT | 1.1 | 0.37 |
| ACUUUGGUUUCGGUGCAGCTT | 0.63 | 0.23 |
| UAUAACUCUCAGGGGAUAUTT | 1.07 | 0.4 |
| UCCUGGAAGUUUGACGUCCTT | 0.88 | 1.41 |
| UACUUAAAGCCAGGGCCACTT | 1.32 | 0.77 |
| UAUGCUCCUCUUCCUGUUCTT | 1.43 | 0.57 |
| AUCCUUGGAGAUGAGCUGGTT | 0.72 | 0.16 |
| CCCAAGUCAUCCUGGUUGUTT | 0.83 | 0.67 |

| Sequence | remaining TGFBR1 mRNA (TGFBR1 mRNA) | remaining TGFBR2 mRNA (TGFBR2 mRNA) |
| --- | --- | --- |
| UCUGGUCUCAGCCAUUGAATT | 0.26 | 1.08 |
| AGGCUAUAAGCUCGCCUACTT | 0.84 | 0.25 |
| UUAUCCCAUAUGAGCUCAGTT | 1.33 | 0.5 |
| UCAAGUGCAUCUCCACAGCTT | 1.29 | 0.23 |
| UUGGAGCCCUUUCCUUUCUTT | 1.07 | 0.26 |
| AUGGAGUAGCAUCACUCUCTT | 1.1 | 0.33 |
| UCCAGCUGUUUCGUUCCUCTT | 0.85 | 0.36 |
| AUGUAUAGGUAGUGCACAGTT | 0.98 | 0.35 |
| UUUCCUGGUUGGUGAGCAGTT | 1.29 | 0.36 |
| UCAUAGCUCUGGCAUCGUCTT | 1.11 | 0.41 |
| AUAUAUACUGCUAUGGUCATT | 0.39 | 0.39 |
| AUUGUUCCGGAAAUAGGUCTT | 1.15 | 0.72 |
| AUGACACCUCAGUCCUUCCTT | 0.38 | 0.88 |
| UCCACGAUGAAGGGAUGCUTT | 1.06 | 0.7 |
| UCAAGUGCAGUAGUAGAUGTT | 1.09 | 0.51 |
| GUUCAGCAGCAGCAGACCATT | 1.16 | 0.79 |
| AGCGUCCUGAAGACUGGAUTT | 0.27 | 1.03 |
| UGGUGAAGAGGCACUUAACTT | 0.69 | 1.06 |
| UCUGCAACGUAGAGGUUAUTT | 0.22 | 0.79 |
| UCACCUUGCAGGAAGGAAGTT | 1.26 | 0.71 |
| GAGCAGCUCUCGUAGCCAUTT | 1.01 | 0.33 |
| AUGCUCCCUCUCAUACUCUTT | 0.9 | 0.39 |
| UGUGCUUGGUCACGGACACTT | 1.86 | 0.27 |
| UCUUGGCUUUGACACCGAGTT | 0.48 | 0.39 |
